From PubChem BioAssay AID248 (DTP/NCI, 2004)
Several values for one entry are separate records, joined by “and”; a condition that tells them apart may be missing. Identical values can stand only once. Inconclusive results and toxic doses are left out.

System: L1210 leukemia ip in BDF1 mice, survival T/C
Assay: NCI In Vivo Anticancer Drug Screen. Data for tumor model L1210 Leukemia (intraperitoneal) in B6D2F1 (BDF1) mice
Conditions: endpoint: mean survival time, higher = longer survival
Method in brief: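 Read-out is survival time, reported as the treated-group measurement over the vehicle-control measurement.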

[1] = dose: 400.0 mg/kg/injection, schedule: Q01DX001 (ip), vehicle: carboxymethylcellulose (CMC)
[2] = dose: 100.0 mg/kg/injection, schedule: Q01DX009 (ip), vehicle: Klucel (hydroxypropylcellulose) (HPC)
[3] = dose: 200.0 mg/kg/injection, schedule: Q01DX009 (ip), vehicle: Klucel (hydroxypropylcellulose) (HPC)
[4] = dose: 100.0 mg/kg/injection, schedule: Q01DX009 (ip), vehicle: saline with Tween-80
[5] = dose: 200.0 mg/kg/injection, schedule: Q01DX009 (ip), vehicle: saline with Tween-80
[6] = dose: 75.0 mg/kg/injection, schedule: Q01DX001 (ip), vehicle: carboxymethylcellulose (CMC)
[7] = dose: 100.0 mg/kg/injection, schedule: Q01DX001 (ip), vehicle: saline
[8] = dose: 200.0 mg/kg/injection, schedule: Q01DX001 (ip), vehicle: saline
[9] = dose: 400.0 mg/kg/injection, schedule: Q01DX001 (ip), vehicle: saline
[10] = dose: 100.0 mg/kg/injection, schedule: Q04DX003 (ip), vehicle: Klucel (hydroxypropylcellulose) (HPC)
[11] = dose: 200.0 mg/kg/injection, schedule: Q01DX009 (ip), vehicle: saline
[12] = dose: 100.0 mg/kg/injection, schedule: Q04DX002 (ip), vehicle: Klucel (hydroxypropylcellulose) (HPC)
[13] = dose: 200.0 mg/kg/injection, schedule: Q04DX002 (ip), vehicle: Klucel (hydroxypropylcellulose) (HPC)
[14] = dose: 400.0 mg/kg/injection, schedule: Q04DX002 (ip), vehicle: Klucel (hydroxypropylcellulose) (HPC)

What does the source list for `CCS(=O)(=O)CCOC(=O)c1ccc([N+](=O)[O-])cc1`?
T/C (dose: 100.0 mg/kg/injection, schedule: Q01DX001 (ip), vehicle: carboxymethylcellulose (CMC)): 100 % of control; T/C (dose: 200.0 mg/kg/injection, schedule: Q01DX001 (ip), vehicle: carboxymethylcellulose (CMC)): 105 % of control; T/C [1]: 98 % of control

Which results are given for `c1ccc(SCN(CSc2ccccc2)c2ccccc2)cc1`?
T/C [2]: 106 % of control; T/C [3]: 101 % of control

How did the T/C [4] turn out when `CC1(C)C(=O)C(C)(C)C1=Nc1ccccc1` was run?
Its T/C is 95 % of control.

And the T/C (dose: 100.0 mg/kg/injection, schedule: Q04DX003 (ip), vehicle: saline with Tween-80)?
Its T/C is 108 % of control.

And the T/C [5]?
The T/C was 94 % of control.

And the T/C (dose: 200.0 mg/kg/injection, schedule: Q04DX003 (ip), vehicle: saline with Tween-80)?
The T/C was 106 % of control.

What about the T/C (dose: 400.0 mg/kg/injection, schedule: Q01DX009 (ip), vehicle: saline with Tween-80) of the same compound?
Its T/C is 97 % of control.

What about the T/C (dose: 400.0 mg/kg/injection, schedule: Q04DX003 (ip), vehicle: saline with Tween-80) of the same compound?
Its T/C is 106 % of control.

For `CCCCNC(N)=O`, which T/C (dose: 100.0 mg/kg/injection, schedule: Q04DX002 (ip), vehicle: saline) is on record?
The T/C was 101 % of control.

And the T/C (dose: 200.0 mg/kg/injection, schedule: Q04DX002 (ip), vehicle: saline)?
Its T/C is 96 % of control.

What about the T/C (dose: 400.0 mg/kg/injection, schedule: Q04DX002 (ip), vehicle: saline) of the same compound?
Its T/C is 92 % of control.

How did the T/C (dose: 12.5 mg/kg/injection, schedule: Q04DX003 (ip), vehicle: saline with Tween-80) turn out when `c1ccc2[nH]c(CN3CCCCC3)cc2c1` was run?
The T/C was 103 % of control.

And the T/C (dose: 25.0 mg/kg/injection, schedule: Q04DX003 (ip), vehicle: saline with Tween-80)?
Its T/C is 98 % of control.

What about the T/C (dose: 50.0 mg/kg/injection, schedule: Q04DX003 (ip), vehicle: saline with Tween-80) of the same compound?
The T/C was 98 % of control.

With `CCCCCCCCCCCCCCCCC(=O)OCC` as the compound, how does the T/C [6] read?
Its T/C is 91 % of control.

`O=C(Nc1ccc(Br)cc1)c1nc(Br)[nH]c1Br` was tested. Which T/C (dose: 6.25 mg/kg/injection, schedule: Q01DX009 (ip), vehicle: saline with Tween-80) did it give?
The T/C was 94 % of control.

What about the T/C (dose: 12.5 mg/kg/injection, schedule: Q01DX009 (ip), vehicle: saline with Tween-80) of the same compound?
Its T/C is 89 % of control.

And the T/C (dose: 25.0 mg/kg/injection, schedule: Q01DX009 (ip), vehicle: saline with Tween-80)?
The T/C was 89 % of control.

How did the T/C (dose: 50.0 mg/kg/injection, schedule: Q01DX001 (ip), vehicle: saline) turn out when `O=[N+]([O-])c1ccc(N(CCO)CCO)cc1` was run?
The T/C was 96 % of control.

And the T/C [7]?
The T/C was 100 % of control.

And the T/C [8]?
The T/C was 100 % of control.

And the T/C [9]?
Its T/C is 96 % of control.

With `Cc1cc(=O)n(CC(=O)O)c2ccccc12` as the compound, how does the T/C (dose: 50.0 mg/kg/injection, schedule: Q04DX003 (ip), vehicle: Klucel (hydroxypropylcellulose) (HPC)) read?
Its T/C is 88 % of control.

What about the T/C [7] of the same compound?
Its T/C is 100 % of control.

And the T/C [10]?
Its T/C is 90 % of control.

And the T/C [8]?
The T/C was 100 % of control.

And the T/C [9]?
The T/C was 98 % of control.

`Cc1ccc(Cl)cc1NS(=O)(=O)c1cccc([N+](=O)[O-])c1` was tested. Which T/C [4] did it give?
Its T/C is 94 % of control.

And the T/C [5]?
Its T/C is 90 % of control.

With `CC(CNC(=O)CCBr)NC(=O)CCBr` (stereo not drawn) as the compound, how does the T/C (dose: 50.0 mg/kg/injection, schedule: Q01DX Z (ip), vehicle: carboxymethylcellulose (CMC)) read?
Its T/C is 103 % of control.

What about the T/C (dose: 170.0 mg/kg/injection, schedule: Q01DX Z (ip), vehicle: carboxymethylcellulose (CMC)) of the same compound?
The T/C was 100 % of control.

And the T/C [11]?
Its T/C is 153 % of control.

What about the T/C (dose: 400.0 mg/kg/injection, schedule: Q01DX009 (ip), vehicle: saline) of the same compound?
The T/C was 178 % of control.

Which T/C (dose: 50.0 mg/kg/injection, schedule: Q01DX001 (ip), vehicle: Klucel (hydroxypropylcellulose) (HPC)) does the source give for `O=S1(=O)CCNc2ccccc2O1` here?
The T/C was 101 % of control.

And the T/C (dose: 100.0 mg/kg/injection, schedule: Q01DX001 (ip), vehicle: Klucel (hydroxypropylcellulose) (HPC))?
Its T/C is 93 % of control.

What about the T/C (dose: 200.0 mg/kg/injection, schedule: Q01DX001 (ip), vehicle: Klucel (hydroxypropylcellulose) (HPC)) of the same compound?
The T/C was 97 % of control.

What about the T/C (dose: 400.0 mg/kg/injection, schedule: Q01DX001 (ip), vehicle: Klucel (hydroxypropylcellulose) (HPC)) of the same compound?
Its T/C is 95 % of control.

How did the T/C (dose: 50.0 mg/kg/injection, schedule: Q01DX001 (ip), vehicle: other) turn out when `COc1c(OC)c(OC)c2c(=O)cc(-c3ccc4c(c3)OCO4)oc2c1OC` was run?
The T/C was 103 % of control.

And the T/C (dose: 100.0 mg/kg/injection, schedule: Q01DX001 (ip), vehicle: other)?
The T/C was 100 % of control.

And the T/C (dose: 200.0 mg/kg/injection, schedule: Q01DX001 (ip), vehicle: other)?
The T/C was 100 % of control.

And the T/C (dose: 400.0 mg/kg/injection, schedule: Q01DX001 (ip), vehicle: other)?
Its T/C is 91 % of control.

What does the source list for `N#Cc1cnc2nc(N)nc(N)c2c1`?
T/C (dose: 50.0 mg/kg/injection, schedule: Q01DX009 (ip), vehicle: saline): 95 % of control and 105 % of control; T/C (dose: 100.0 mg/kg/injection, schedule: Q01DX009 (ip), vehicle: saline): 95 % of control and 91 % of control; T/C (dose: 100.0 mg/kg/injection, schedule: Q04DX003 (ip), vehicle: saline): 95 % of control; T/C [11]: 95 % of control and 98 % of control and 90 % of control; T/C (dose: 200.0 mg/kg/injection, schedule: Q04DX003 (ip), vehicle: saline): 106 % of control

For `COc1ccc(OCCO)cc1`, which T/C [2] is on record?
The T/C was 95 % of control.

And the T/C [12]?
The T/C was 96 % of control.

And the T/C [3]?
The T/C was 98 % of control.

And the T/C [13]?
Its T/C is 93 % of control.

What about the T/C (dose: 400.0 mg/kg/injection, schedule: Q01DX009 (ip), vehicle: Klucel (hydroxypropylcellulose) (HPC)) of the same compound?
The T/C was 103 % of control.

What about the T/C [14] of the same compound?
Its T/C is 100 % of control.

`CC(=O)OCCC(C)Nc1ccnc2cc(Cl)ccc12` (stereo not drawn) was tested. Which T/C (dose: 20.0 mg/kg/injection, schedule: Q04DX003 (ip), vehicle: saline with Tween-80) did it give?
Its T/C is 92 % of control.

And the T/C (dose: 40.0 mg/kg/injection, schedule: Q04DX003 (ip), vehicle: saline with Tween-80)?
Its T/C is 87 % of control.

For `O=[N+]([O-])c1ccc(N2N=NC3CC/C(=C\c4cccs4)C32N2CCOCC2)cc1` (stereo not drawn), which T/C [12] is on record?
The T/C was 93 % of control.

What about the T/C [13] of the same compound?
The T/C was 101 % of control.

What about the T/C [14] of the same compound?
The T/C was 90 % of control.

Which results are given for `C(=NC(c1ccccc1)(c1ccccc1)c1ccccc1)=NC(c1ccccc1)(c1ccccc1)c1ccccc1`?
T/C (dose: 25.0 mg/kg/injection, schedule: Q01DX009 (ip), vehicle: gum acacia): 88 % of control; T/C (dose: 50.0 mg/kg/injection, schedule: Q01DX009 (ip), vehicle: gum acacia): 90 % of control; T/C (dose: 100.0 mg/kg/injection, schedule: Q04DX003 (ip), vehicle: gum acacia): 93 % of control; T/C (dose: 200.0 mg/kg/injection, schedule: Q01DX009 (ip), vehicle: gum acacia): 88 % of control; T/C (dose: 200.0 mg/kg/injection, schedule: Q04DX003 (ip), vehicle: gum acacia): 91 % of control; T/C (dose: 400.0 mg/kg/injection, schedule: Q01DX009 (ip), vehicle: gum acacia): 88 % of control; T/C (dose: 400.0 mg/kg/injection, schedule: Q04DX003 (ip), vehicle: gum acacia): 86 % of control

For `CCOc1ccc(NC2=C(OC)C(=O)C(Nc3ccc(OCC)cc3)=C(OC)C2=O)cc1`, which T/C (dose: 50.0 mg/kg/injection, schedule: Q01DX001 (ip), vehicle: carboxymethylcellulose (CMC)) is on record?
Its T/C is 99 % of control.

And the T/C [1]?
Its T/C is 93 % of control.

Which results are given for `O=S1(=O)CC2(N3CCCC3)CCCCC21` (stereo not drawn)?
T/C (dose: 75.0 mg/kg/injection, schedule: Q01DX001 (ip), vehicle: saline): 98 % of control; T/C (dose: 150.0 mg/kg/injection, schedule: Q01DX001 (ip), vehicle: saline): 100 % of control; T/C (dose: 300.0 mg/kg/injection, schedule: Q01DX001 (ip), vehicle: saline): 100 % of control

Which results are given for `COc1cc(Nc2ccc(O)c(CN3CCCCC3)c2)c2ncccc2c1`?
T/C (dose: 75.0 mg/kg/injection, schedule: Q01DX001 (ip), vehicle: other): 98 % of control; T/C (dose: 150.0 mg/kg/injection, schedule: Q01DX001 (ip), vehicle: other): 98 % of control; T/C (dose: 300.0 mg/kg/injection, schedule: Q01DX001 (ip), vehicle: other): 91 % of control

How did the T/C [10] turn out when `Cc1nc(N)nc2c1CCC(=O)N2` was run?
The T/C was 100 % of control.

And the T/C (dose: 200.0 mg/kg/injection, schedule: Q04DX003 (ip), vehicle: Klucel (hydroxypropylcellulose) (HPC))?
The T/C was 89 % of control.

What about the T/C (dose: 400.0 mg/kg/injection, schedule: Q04DX003 (ip), vehicle: Klucel (hydroxypropylcellulose) (HPC)) of the same compound?
Its T/C is 94 % of control.

How did the T/C [6] turn out when `COc1ccc(COC(=O)Nc2ccccc2)cc1` was run?
Its T/C is 101 % of control.

What about the T/C (dose: 150.0 mg/kg/injection, schedule: Q01DX001 (ip), vehicle: carboxymethylcellulose (CMC)) of the same compound?
Its T/C is 98 % of control.

What does the source list for `CNNC(=O)CCc1ccccc1`?
T/C (dose: 10.0 mg/kg/injection, schedule: Q01DX009 (ip), vehicle: saline): 103 % of control; T/C (dose: 20.0 mg/kg/injection, schedule: Q01DX009 (ip), vehicle: saline): 93 % of control; T/C (dose: 40.0 mg/kg/injection, schedule: Q01DX009 (ip), vehicle: saline): 90 % of control
